Laboratory results from ChEMBL document CHEMBL3217557, “Triazole-substituted N-hydroxyindol-2-carboxylates as inhibitors of isoform 5 of human lactate dehydrogenase (hLDH5)” (Medchemcomm, 2011).

How the values were obtained:
[1] = molecular target: T1, L-lactate dehydrogenase A chain (Homo sapiens, UniProt P00338); assay: Inhibition of human LDHA4 using sodium pyruvate as substrate assessed as NADH oxidation at 125 uM measured every 30 secs for 5 mins by spectrophotometric analysis relative to control
[2] = molecular target: T1, L-lactate dehydrogenase A chain; assay: Competitive inhibition of human LDHA4 using 0.025 to 1 mM sodium pyruvate as substrate measured every 30 secs for 5 mins by Lineweaver-Burk plot analysis in presence of NADH
[3] = molecular target: T1, L-lactate dehydrogenase A chain; assay: Competitive inhibition of human LDHA4 using sodium pyruvate as substrate measured every 30 secs for 5 mins by Lineweaver-Burk plot analysis in presence of 12.5 to 150 uM NADH
Homo sapiens = organism: Homo sapiens; assay: Inhibition of human LDH1 using sodium pyruvate as substrate assessed as NADH oxidation at 125 uM measured every 30 secs for 5 mins by spectrophotometric analysis relative to control
[4] = Competitive inhibition of human LDH1 using sodium pyruvate as substrate measured every 30 secs for 5 mins by Lineweaver-Burk plot analysis in presence of 12.5 to 150 uM NADH

Row | SMILES | inhibition [1] [%] | Ki [2] [µM] | Ki [3] [µM] | inhibition (Homo sapiens) [%] | Ki [4] [µM]
1 | O=C(O)c1cc2ccc(-n3cc(CCCc4cn(-c5ccc6cc(C(=O)O)n(O)c6c5)nn4)nn3)cc2n1O | 83 | 37 | 20 | 32 | 
2 | O=C(O)c1cc2cc(-n3cc(-c4ccccc4)nn3)ccc2n1O | < 15 |  |  |  | 
3 | O=C(O)c1cccc(-c2cn(-c3ccc4c(c3)cc(C(=O)O)n4O)nn2)c1 | < 15 |  |  |  | 
4 | O=C(O)c1cccc(-c2cn(-c3ccc4cc(C(=O)O)n(O)c4c3)nn2)c1 | 65 | 45 | 50 | < 3 | 
5 | O=C(O)c1cc2c(-n3cc(CCO)nn3)cccc2n1O | < 15 |  |  |  | 
6 | O=C(O)c1cc2c(-n3cc(-c4ccccc4)nn3)cccc2n1O | 73 | 44 | 28 | < 3 | 
7 | CCCCc1cn(-c2cccc3c2cc(C(=O)O)n3O)nn1 | < 15 |  |  |  | 
8 | O=C(O)c1cccc(-c2cn(-c3cccc4c3cc(C(=O)O)n4O)nn2)c1 | 60 | 86 | 57 | 60 | 89
